Reference: US11518760B2 (Liverpool School of Tropical Medicine, priority 2017, dated 2022)

What follows are compounds tested on C6/36 Aedes albopictus cell line infected with Wolbachia pipientis (Wolbachia strain wAlbB) (assay: In vitro insect cell line assay (anti-Wolbachia screen, SYTO 11 high content imaging)). Settings: 168 h; C6/36 Aedes albopictus cells infected with Wolbachia pipientis wAlbB, 7 days incubation, SYTO 11 imaging; read-out: In vitro anti-Wolbachia activity.
Type: cell-based
Procedure: A C6/36 Aedes albopictus cell line infected with Wolbachia pipientis (Wolbachia strain wAlbB) derived from Aa23 A. albopictus cell line (O'Neill et al., 1997; Insect Mol Biol; Turner et al., (2006) J. Immunol. 7:1240-1249) was used to screen compounds. Cells were cultured in Leibovitz's L15+L-glutamine supplemented with heat-inactivated Foetal Calf Serum (HI-FCS), non-essential amino acids and tryptose phosphate broth. Culture medium was filter-sterilized through a 0.2 μm filter and stored at 4° C. Compounds were provided as 10 mM stocks in DMSO, diluted to 50 μM working stock to give final concentration of 5 μM on the test plate. Concentrated stocks were frozen at −20° C.
Prior to use in the screening assay, cell cultures were sub-passaged (6 days prior) to provide ˜90% confluent cells on Day 0 of screening assay. On Day 0 (assay set-up), the medium was removed from the stock culture flask and replaced with fresh medium. The cells were detached by scraping and cell density was calculated using an automated cell counter. The cells were then diluted at working density and aliquoted at 90 μl to each well of a Cell Carrier 384 well plate (Perkin Elmer). Cell plates were incubated at 26° C.
Control solution (DMSO-medium) was dispensed at 10 μl per well for “untreated” wells. Test solution (Drug-DMSO) was also dispensed at 10 μl (from working plate) per well for “treated” wells. The plates were incubated at 26° C., inside plastic wallet in incubator, for 7 days.
On Day 7, 25 μl of staining medium/dye (SYTO 11, Life Technologies) was added to each sample well and allowed to stain for 15 minutes in the dark. All the medium was removed from each sample well without disturbing the cells and replaced with 100 μl of fresh medium. Plates were imaged on the Operetta High Content Imaging system (Perkin Elmer) and analyzed using texture analysis through Harmony software (Perkin Elmer). The cell-based screen and analysis are described in detail in Clare et al. (2014) J Biomol Screen.
Compound C[C@@H]1CO[C@@H](C)CN1c1nc(NCc2cccnc2C(F)(F)F)c2cccnc2n1 [Example 271, 2-((2S,5R)-2,5-dimethylmorpholino)-N-((2-(trifluoromethyl)pyridin-3-yl)methyl)pyrido[2,3-d]pyrimidin-4-amine] has an EC50 of 0.01 to 1 nM. With FC(F)C1CN(c2nc(NCc3cccnc3C(F)(F)F)c3cccnc3n2)C1 [Example 274, 2-(3-(difluoromethyl)azetidin-1-yl)-N-((2-(trifluoromethyl)pyridin-3-yl)methyl)pyrido[2,3-d]pyrimidin-4-amine] the EC50 was 1 to 10 nM. With CC(C)Nc1nc(NCc2ccc(F)cc2)c2ccccc2n1 [Example 134, N^4-(4-fluorobenzyl)-N^2-isopropylquinazoline-2,4-diamine] the EC50 was 1000 to 100000 nM. In the case of CC(C)Nc1nc(NCc2ccc(F)cc2)c2sccc2n1 [Example 15, N^4-(4-fluorobenzyl)-N^2-isopropylthieno[3,2-d]pyrimidine-2,4-diamine], the EC50 is reported as 100 to 1000 nM. Work on CC(C)Nc1nc(N2CCOCC2c2ccccc2C(F)(F)F)c2cccnc2n1 (centres unmarked) [Example 187, N-isopropyl-4-(3-(2-(trifluoromethyl)phenyl)morpholino)pyrido[2,3-d]pyrimidin-2-amine] yielded an EC50 of 1000 to 100000 nM. For CC(C)Nc1nc(NCc2ccc(C(F)(F)F)cc2)c2ccccc2n1 [Example 111, N^2-isopropyl-N^4-(4-(trifluoromethyl)benzyl)quinazoline-2,4-diamine], the EC50 was 1000 to 100000 nM. For CN(C)c1nc(NCc2c(F)cccc2C(F)(F)F)c2cccnc2n1 [Example 169, N^4-(2-fluoro-6-(trifluoromethyl)benzyl)-N^2,N^2-dimethylpyrido[2,3-d]pyrimidine-2,4-diamine], the EC50 was 100 to 1000 nM. CC(C)C1COCCN1c1nc(NCc2cccnc2C(F)(F)F)c2cccnc2n1 (centres unmarked) [Example 269, 2-(3-isopropylmorpholino)-N-((2-(trifluoromethyl)pyridin-3-yl)methyl)pyrido[2,3-d]pyrimidin-4-amine] showed an EC50 of 1 to 10 nM. N#CC1CCCN(c2nc(NCc3cccnc3C(F)(F)F)c3cccnc3n2)C1 (centres unmarked) [Example 251] was tested, and the EC50 was 1 to 10 nM. Work on FC(F)(F)c1ccccc1CNc1nc(N2CCC(Cl)CC2)nc2ncccc12 [Example 198, 2-(4-chloropiperidin-1-yl)-N-(2-(trifluoromethyl)benzyl)pyrido[2,3-d]pyrimidin-4-amine] yielded an EC50 of 1 to 10 nM. In the case of CC(C)Nc1nc(NCc2ccc(C(F)(F)F)cc2)c2ncccc2n1 [Example 124, N^2-isopropyl-N^4-(4-(trifluoromethyl)benzyl)pyrido[3,2-d]pyrimidine-2,4-diamine], the EC50 is reported as 1000 to 100000 nM. Work on FC(F)(F)c1ccccc1CNc1ncnc2ccsc12 [Example 23, N-(2-(trifluoromethyl)benzyl)thieno[3,2-d]pyrimidin-4-amine] yielded an EC50 of 10 to 100 nM. Compound CC(C)N(C)c1nc(NCc2ccccc2Cl)c2sccc2n1 [Example 33, N^4-(2-chlorobenzyl)-N^2-isopropyl-N^2-methylthieno[3,2-d]pyrimidine-2,4-diamine] has an EC50 of 100 to 1000 nM. CC1CN(c2nc(NCc3cccnc3C(F)(F)F)c3cccnc3n2)CCO1 (centres unmarked) [Example 241, 2-(2-methylmorpholino)-N-((2-(trifluoromethyl)pyridin-3-yl)methyl)pyrido[2,3-d]pyrimidin-4-amine] gave an EC50 of 0.01 to 1 nM. Work on Cc1nc(N(C)C(C)c2ccccc2C(F)(F)F)c2sc(C(C)(C)O)cc2n1 (centres unmarked) [Example 70, 2-(2-methyl-4-(methyl(1-(2-(trifluoromethyl)phenyl)ethyl)amino)thieno[3,2-d]pyrimidin-6-yl)propan-2-ol] yielded an EC50 of 1000 to 100000 nM. For CC(C)Nc1nc(NCc2ccc(C(F)(F)F)nc2)c2ncccc2n1 [Example 125, N^2-isopropyl-N^4-((6-(trifluoromethyl)pyridin-3-yl)methyl)pyrido[3,2-d]pyrimidine-2,4-diamine], the EC50 was 1000 to 100000 nM. CCN(CC)c1ncnc2ccsc12 [Example 39] showed an EC50 of 1000 to 100000 nM. FC(F)(F)c1ncccc1CNc1nc(N2CC3CC2CO3)nc2ncccc12 (centres unmarked) [Example 255, 2-(2-oxa-5-azabicyclo[2.2.1]heptan-5-yl)-N-((2-(trifluoromethyl)pyridin-3-yl)methyl)pyrido[2,3-d]pyrimidin-4-amine] was tested, and the EC50 was 1 to 10 nM. For CC1COC[C@@H](C)N1c1nc(NCc2ccccc2C(F)(F)F)c2cccnc2n1 (stereo partly drawn) [Example 277, 2-((3R)-3,5-dimethylmorpholino)-N-(2-(trifluoromethyl)benzyl)pyrido[2,3-d]pyrimidin-4-amine], the EC50 was 10 to 100 nM. CC(C)Nc1nc(NCc2ccc(C(F)(F)F)cc2)c2cccnc2n1 [Example 129, N^2-isopropyl-N^4-(4-(trifluoromethyl)benzyl)pyrido[2,3-d]pyrimidine-2,4-diamine] showed an EC50 of 100 to 1000 nM. CC(C)Nc1nc(NCc2ccc(C#N)cc2)c2ccccc2n1 [Example 120, N^4-(4-cyanobenzyl)-N^2-isopropylquinazoline-2,4-diamine] gave an EC50 of 100 to 1000 nM. For N#CC1CCCN(c2nc(NCc3ccccc3C(F)(F)F)c3cccnc3n2)C1 (centres unmarked) [Example 262, 1-(4-((2-(trifluoromethyl)benzyl)amino)pyrido[2,3-d]pyrimidin-2-yl)piperidine-3-carbonitrile], the EC50 was 0.01 to 1 nM. In the case of CC1(O)CN(c2nc(NCc3cccnc3C(F)(F)F)c3cccnc3n2)C1 [Example 171, 3-methyl-1-(4-(((2-(trifluoromethyl)pyridin-3-yl)methyl)amino)pyrido[2,3-d]pyrimidin-2-yl)azetidin-3-ol], the EC50 is reported as 100 to 1000 nM. CN1CCN(c2nc(NCc3ccccc3C(F)(F)F)c3sccc3n2)CC1 [Example 95, 2-(4-methylpiperazin-1-yl)-N-(2-(trifluoromethyl)benzyl)thieno[3,2-d]pyrimidin-4-amine] was tested, and the EC50 was 1000 to 100000 nM. In the case of CS(=O)(=O)C1CCN(c2nc(NCc3cccnc3C(F)(F)F)c3cccnc3n2)CC1 [Example 232, 2-(4-(methylsulfonyl)piperidin-1-yl)-N-((2-(trifluoromethyl)pyridin-3-yl)methyl)pyrido[2,3-d]pyrimidin-4-amine], the EC50 is reported as 100 to 1000 nM. CC(C)Nc1nc(NCc2ccc(Cl)cc2)c2sccc2n1 [Example 19, N^4-(4-chlorobenzyl)-N^2-isopropylthieno[3,2-d]pyrimidine-2,4-diamine] gave an EC50 of 1000 to 100000 nM. With CC1COCCN1c1nc(NCc2cccnc2C(F)(F)F)c2cncnc2n1 (centres unmarked) [Example 306, 2-(3-methylmorpholino)-N-((2-(trifluoromethyl)pyridin-3-yl)methyl)pyrimido[4,5-d]pyrimidin-4-amine] the EC50 was 1000 to 100000 nM. In the case of CNCc1nc(NCc2ccccc2C(F)(F)F)c2sccc2n1 [Example 154, 2-((methylamino)methyl)-N-(2-(trifluoromethyl)benzyl)thieno[3,2-d]pyrimidin-4-amine], the EC50 is reported as 1000 to 100000 nM. With N#CC1CN(c2nc(NCc3cccnc3C(F)(F)F)c3cccnc3n2)C1 [Example 237, 1-(4-(((2-(trifluoromethyl)pyridin-3-yl)methyl)amino)pyrido[2,3-d]pyrimidin-2-yl)azetidine-3-carbonitrile] the EC50 was 100 to 1000 nM. CC(C)Nc1nc(NCc2c(Cl)cccc2Cl)c2sccc2n1 [Example 27, N^4-(2,6-dichlorobenzyl)-N-isopropylthieno[3,2-d]pyrimidine-2,4-diamine] gave an EC50 of 1000 to 100000 nM. In the case of FC(F)(F)c1ncccc1CNc1nc(N2CCC(C(F)(F)F)C2)nc2ncccc12 (centres unmarked) [Example 236, N-((2-(trifluoromethyl)pyridin-3-yl)methyl)-2-(3-(trifluoromethyl)pyrrolidin-1-yl)pyrido[2,3-d]pyrimidin-4-amine], the EC50 is reported as under 0.01 nM. Work on CC(C)Nc1nc(NCc2ccc(S(C)(=O)=O)cc2)c2ncccc2n1 [Example 123, N^2-isopropyl-N^4-(4-(methylsulfonyl)benzyl)pyrido[3,2-d]pyrimidine-2,4-diamine] yielded an EC50 of 1000 to 100000 nM. Compound Cc1ccc(Nc2ncnc3ccsc23)c(C)c1 [Example 31, N-(2,4-dimethylphenyl)thieno[3,2-d]pyrimidin-4-amine] has an EC50 of 1000 to 100000 nM. CNc1nc(NCc2ccccc2C(F)(F)F)c2cccnc2n1 [Example 143, N^2-methyl-N^4-(2-(trifluoromethyl)benzyl)pyrido[2,3-d]pyrimidine-2,4-diamine] gave an EC50 of 10 to 100 nM. CC1COC[C@@H](C)N1c1nc(NCc2cccnc2C(F)(F)F)c2cccnc2n1 (stereo partly drawn) [Example 275, 2-((3R)-3,5-dimethylmorpholino)-N-((2-(trifluoromethyl)pyridin-3-yl)methyl)pyrido[2,3-d]pyrimidin-4-amine] was tested, and the EC50 was 0.01 to 1 nM. N#Cc1ccccc1CNc1nc(Cl)nc2ccsc12 [Example 104, 2-(((2-chlorothieno[3,2-d]pyrimidin-4-yl)amino)methyl)benzonitrile] gave an EC50 of 100 to 1000 nM. In the case of C[C@H]1COCCN1c1nc(NCc2ccccc2C(F)(F)F)c2cccnc2n1 [Example 208, (S)-2-(3-methylmorpholino)-N-(2-(trifluoromethyl)benzyl)pyrido[2,3-d]pyrimidin-4-amine], the EC50 is reported as under 0.01 nM.

Same assay, conditions: C6/36, 168 h, read-out: In vitro anti-Wolbachia activity
For Cc1cc2ncnc(N(C)C(C)c3ccccc3C(F)(F)F)c2s1 (centres unmarked) [Example 1], the EC50 was 1000 to 100000 nM.
